In patent US9340590B2 (priority 2011, dated 2016):
Like-named read-outs stand apart in the source and are kept apart here. Positions of bridges follow the written chain, without caps; N, C: chain ends. Non-standard residues stand in square brackets, D forms with d. Residues, ends and D or L forms follow the SMILES beside them. 1Nal = N[C@@H](Cc1cccc2ccccc12)C(=O)O; 2Pal = N[C@@H](Cc1ccccn1)C(=O)O

Legend:
Test in all cases: cell-based
hNav1.3 = hNav1.3 (Homo sapiens, UniProt Q9NY46); settings: IonWorks Quattro, read-out: IWQ Use Nav1.3
hNav1.5 = hNav1.5 (Homo sapiens, UniProt Q14524); settings: IonWorks Quattro, read-out: IWQ Use Nav1.5
hNav1.7 = hNav1.7 (Homo sapiens, UniProt Q15858); type: cell-based; settings: IonWorks Quattro, read-out: IWQ Use Nav1.7
[1] = clamped to −110 mV, depolarized to −10 mV, 5 min after compound, n=2

hNav1.5, sequence (Q14524 whole entry, looked up): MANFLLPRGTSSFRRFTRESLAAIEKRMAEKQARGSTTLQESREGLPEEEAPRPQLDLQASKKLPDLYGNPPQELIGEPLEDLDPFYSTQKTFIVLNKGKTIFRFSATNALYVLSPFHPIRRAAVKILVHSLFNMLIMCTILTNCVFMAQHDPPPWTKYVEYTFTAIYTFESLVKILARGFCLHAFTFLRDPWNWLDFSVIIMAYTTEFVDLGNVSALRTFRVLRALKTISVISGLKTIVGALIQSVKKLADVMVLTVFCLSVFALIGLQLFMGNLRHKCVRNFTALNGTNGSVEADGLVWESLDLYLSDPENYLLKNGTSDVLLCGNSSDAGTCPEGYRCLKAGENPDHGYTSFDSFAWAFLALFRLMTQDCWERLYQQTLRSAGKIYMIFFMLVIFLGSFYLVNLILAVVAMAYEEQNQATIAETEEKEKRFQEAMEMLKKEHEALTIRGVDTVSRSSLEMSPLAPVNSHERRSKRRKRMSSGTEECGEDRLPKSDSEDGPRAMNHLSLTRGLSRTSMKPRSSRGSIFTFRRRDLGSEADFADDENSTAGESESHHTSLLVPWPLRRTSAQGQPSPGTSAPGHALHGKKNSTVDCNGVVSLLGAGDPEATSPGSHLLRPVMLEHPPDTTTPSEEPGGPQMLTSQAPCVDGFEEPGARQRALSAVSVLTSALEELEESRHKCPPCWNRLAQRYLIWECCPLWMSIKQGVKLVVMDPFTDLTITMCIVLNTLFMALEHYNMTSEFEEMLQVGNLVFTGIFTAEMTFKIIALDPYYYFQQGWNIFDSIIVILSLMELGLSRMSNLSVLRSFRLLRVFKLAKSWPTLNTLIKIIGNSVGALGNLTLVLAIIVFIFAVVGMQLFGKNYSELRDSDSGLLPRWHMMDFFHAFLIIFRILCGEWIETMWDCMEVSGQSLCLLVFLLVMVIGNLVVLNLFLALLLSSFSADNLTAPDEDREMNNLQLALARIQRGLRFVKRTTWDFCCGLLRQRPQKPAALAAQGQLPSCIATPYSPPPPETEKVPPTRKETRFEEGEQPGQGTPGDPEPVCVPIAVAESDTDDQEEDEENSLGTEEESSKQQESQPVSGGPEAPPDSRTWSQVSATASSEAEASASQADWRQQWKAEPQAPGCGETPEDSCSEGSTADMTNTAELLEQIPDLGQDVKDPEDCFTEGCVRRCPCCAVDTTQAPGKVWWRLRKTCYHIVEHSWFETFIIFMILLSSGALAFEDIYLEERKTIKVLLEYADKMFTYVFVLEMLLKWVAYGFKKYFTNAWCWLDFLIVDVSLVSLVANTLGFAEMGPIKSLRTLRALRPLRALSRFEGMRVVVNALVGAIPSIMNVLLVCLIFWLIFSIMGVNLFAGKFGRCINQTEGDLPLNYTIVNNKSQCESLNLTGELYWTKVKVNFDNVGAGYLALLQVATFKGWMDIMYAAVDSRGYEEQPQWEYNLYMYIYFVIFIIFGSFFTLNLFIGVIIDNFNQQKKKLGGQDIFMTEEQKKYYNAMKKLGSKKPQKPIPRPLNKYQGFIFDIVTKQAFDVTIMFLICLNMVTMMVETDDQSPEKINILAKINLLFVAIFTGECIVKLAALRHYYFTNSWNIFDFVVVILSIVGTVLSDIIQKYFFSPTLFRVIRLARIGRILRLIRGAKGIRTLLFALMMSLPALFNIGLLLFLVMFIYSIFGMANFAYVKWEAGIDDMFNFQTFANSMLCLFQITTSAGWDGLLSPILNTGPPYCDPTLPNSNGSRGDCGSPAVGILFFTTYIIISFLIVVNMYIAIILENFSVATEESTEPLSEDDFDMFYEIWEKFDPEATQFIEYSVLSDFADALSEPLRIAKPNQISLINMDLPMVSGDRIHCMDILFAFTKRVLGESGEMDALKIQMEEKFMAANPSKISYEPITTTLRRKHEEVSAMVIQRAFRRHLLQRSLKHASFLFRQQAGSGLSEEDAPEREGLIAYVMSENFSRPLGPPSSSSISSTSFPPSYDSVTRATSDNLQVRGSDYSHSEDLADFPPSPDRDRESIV
hNav1.3, sequence (Q9NY46 whole entry, looked up): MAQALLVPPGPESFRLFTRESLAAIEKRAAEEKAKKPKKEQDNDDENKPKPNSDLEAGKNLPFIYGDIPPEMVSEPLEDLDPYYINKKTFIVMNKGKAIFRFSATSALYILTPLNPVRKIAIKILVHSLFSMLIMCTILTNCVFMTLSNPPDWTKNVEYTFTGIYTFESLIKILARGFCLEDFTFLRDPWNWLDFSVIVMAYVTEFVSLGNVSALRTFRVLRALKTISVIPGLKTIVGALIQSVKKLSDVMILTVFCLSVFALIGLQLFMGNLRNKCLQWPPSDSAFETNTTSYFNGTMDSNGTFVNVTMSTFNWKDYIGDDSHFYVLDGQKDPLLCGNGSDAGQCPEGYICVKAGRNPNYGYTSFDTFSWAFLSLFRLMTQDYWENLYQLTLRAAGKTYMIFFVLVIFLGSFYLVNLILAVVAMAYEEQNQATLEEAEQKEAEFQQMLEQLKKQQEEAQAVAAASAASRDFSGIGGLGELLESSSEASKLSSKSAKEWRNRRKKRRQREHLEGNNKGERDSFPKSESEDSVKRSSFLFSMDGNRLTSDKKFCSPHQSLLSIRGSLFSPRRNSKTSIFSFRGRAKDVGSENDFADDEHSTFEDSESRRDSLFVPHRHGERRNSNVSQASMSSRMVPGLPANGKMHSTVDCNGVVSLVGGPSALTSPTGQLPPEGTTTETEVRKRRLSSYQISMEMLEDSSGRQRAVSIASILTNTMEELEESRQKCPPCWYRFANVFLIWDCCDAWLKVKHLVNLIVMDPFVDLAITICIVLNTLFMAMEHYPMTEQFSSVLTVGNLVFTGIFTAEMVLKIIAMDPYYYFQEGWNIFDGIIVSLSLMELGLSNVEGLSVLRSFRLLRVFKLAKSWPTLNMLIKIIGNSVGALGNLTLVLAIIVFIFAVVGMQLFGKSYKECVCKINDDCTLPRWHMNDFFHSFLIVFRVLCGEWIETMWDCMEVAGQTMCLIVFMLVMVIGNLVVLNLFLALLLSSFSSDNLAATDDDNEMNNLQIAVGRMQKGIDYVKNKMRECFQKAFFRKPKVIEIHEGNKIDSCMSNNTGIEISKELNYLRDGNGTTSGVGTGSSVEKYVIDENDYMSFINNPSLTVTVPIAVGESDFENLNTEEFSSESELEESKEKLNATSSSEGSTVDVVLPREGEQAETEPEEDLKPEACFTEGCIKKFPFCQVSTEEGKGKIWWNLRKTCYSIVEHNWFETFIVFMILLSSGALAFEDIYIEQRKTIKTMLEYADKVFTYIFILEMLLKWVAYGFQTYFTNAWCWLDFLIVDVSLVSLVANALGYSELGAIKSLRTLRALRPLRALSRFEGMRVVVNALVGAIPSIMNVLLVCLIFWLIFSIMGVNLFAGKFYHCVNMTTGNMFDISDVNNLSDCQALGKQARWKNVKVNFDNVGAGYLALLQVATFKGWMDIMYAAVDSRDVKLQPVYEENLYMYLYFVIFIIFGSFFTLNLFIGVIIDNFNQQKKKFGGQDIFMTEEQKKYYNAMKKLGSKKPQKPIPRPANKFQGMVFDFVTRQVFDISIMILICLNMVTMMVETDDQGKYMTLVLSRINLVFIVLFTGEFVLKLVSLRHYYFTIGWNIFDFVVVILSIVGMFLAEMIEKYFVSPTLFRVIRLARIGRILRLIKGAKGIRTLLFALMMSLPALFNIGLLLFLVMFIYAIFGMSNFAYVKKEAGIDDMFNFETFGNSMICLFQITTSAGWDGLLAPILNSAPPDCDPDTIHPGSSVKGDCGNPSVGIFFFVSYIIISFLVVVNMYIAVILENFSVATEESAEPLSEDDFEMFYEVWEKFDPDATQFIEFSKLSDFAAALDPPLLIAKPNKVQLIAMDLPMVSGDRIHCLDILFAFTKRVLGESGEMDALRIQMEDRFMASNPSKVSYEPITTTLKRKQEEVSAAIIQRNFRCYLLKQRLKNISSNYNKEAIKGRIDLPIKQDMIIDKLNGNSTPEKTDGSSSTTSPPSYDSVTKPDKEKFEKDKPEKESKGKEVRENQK

| Compound | IC50 (hNav1.3; use-dependent block, hNav1.3) [µM] | IC50 (hNav1.5; use-dependent block, hNav1.5) [µM] | IC50 (hNav1.7; use-dependent block, hNav1.7) [µM] | further results |
| --- | --- | --- | --- | --- |
| CC[C@H](C)[C@@H]1NC(=O)[C@@H]2CSSC[C@@H]3NC(=O)[C@H](C(C)C)NC(=O)[C@H](CC(C)C)NC(=O)[C@H](CC(N)=O)NC(=O)[C@@H]4CCCN4C(=O)[C@H](CCCNC(=N)N)NC(=O)[C@H](CSSC[C@H](NC(=O)[C@@H](N)CC(=O)O)C(=O)N[C@@H](CC(C)C)C(=O)NCC(=O)N[C@@H](C)C(=O)N[C@@H](Cc4ccccc4)C(=O)N[C@@H](CCCNC(=N)N)C(=O)N[C@@H](CCCCN)C(=O)N2)NC(=O)[C@H](CSSC[C@@H](C(=O)N[C@@H](CCCCN)C(=O)N[C@@H](Cc2ccc(O)cc2)C(=O)N[C@H](C(=O)N[C@@H](Cc2ccccc2)C(N)=O)C(C)C)NC(=O)[C@H](Cc2c[nH]c4ccccc24)NC(=O)[C@H](CCCCN)NC(=O)[C@H](Cc2c[nH]cn2)NC(=O)[C@H]([C@@H](C)O)NC(=O)[C@H](CCC(=O)O)NC(=O)[C@H](CO)NC3=O)NC(=O)[C@H](CCCCN)NC(=O)[C@H](CC(=O)O)NC(=O)[C@H](CC(N)=O)NC(=O)[C@H](CC(=O)O)NC(=O)[C@@H]2CCCN2C1=O [compound 735] (H-DCLGAFRKCIPDNDKCCRPNLVCSETHKWCKYVF-NH2; disulfide 2-17, 9-23, 16-30) | 3.6 | 41 | 1.5 | – |
| CC[C@H](C)[C@@H]1NC(=O)[C@@H]2CSSC[C@@H]3NC(=O)[C@H](C(C)C)NC(=O)[C@H](CC(C)C)NC(=O)[C@H](CC(N)=O)NC(=O)[C@@H]4CCCN4C(=O)[C@H](CCCNC(=N)N)NC(=O)[C@H](CSSC[C@H](NC(=O)[C@@H](N)CO)C(=O)N[C@@H](CC(C)C)C(=O)NCC(=O)N[C@@H](Cc4ccccc4)C(=O)N[C@@H](CCSC)C(=O)N[C@@H](CCCNC(=N)N)C(=O)N[C@@H](CCCCN)C(=O)N2)NC(=O)[C@H](CSSC[C@@H](C(=O)N[C@@H](CCCCN)C(=O)N[C@@H](Cc2ccc(O)cc2)C(=O)N[C@H](C(=O)N[C@@H](Cc2ccccc2)C(N)=O)C(C)C)NC(=O)[C@H](Cc2c[nH]c4ccccc24)NC(=O)[C@H](CCCCN)NC(=O)[C@H](Cc2c[nH]cn2)NC(=O)[C@H]([C@@H](C)O)NC(=O)[C@H](CCCNC(=N)N)NC(=O)[C@H](CO)NC3=O)NC(=O)[C@H](CCCCN)NC(=O)[C@H](CC(=O)O)NC(=O)[C@H](CC(N)=O)NC(=O)[C@H](CC(=O)O)NC(=O)[C@@H]2CCCN2C1=O [SEQ ID NO: 191] (H-SCLGFMRKCIPDNDKCCRPNLVCSRTHKWCKYVF-NH2; disulfide 2-17, 9-23, 16-30) | – | – | – | IC50 (hNav1.3; [1]): 0.05 µM; IC50 (hNav1.5; [1]): 9.4 µM; IC50 (hNav1.7; [1]): 0.07 µM |
| CC[C@H](C)[C@@H]1NC(=O)[C@@H]2CSSC[C@@H]3NC(=O)[C@H](C(C)C)NC(=O)[C@H](CC(C)C)NC(=O)[C@H](CC(N)=O)NC(=O)[C@@H]4CCCN4C(=O)[C@H](CCCNC(=N)N)NC(=O)[C@H](CSSC[C@H](NC(=O)[C@@H](N)CC(=O)O)C(=O)N[C@@H](CC(C)C)C(=O)NCC(=O)N[C@@H](Cc4ccccc4)C(=O)N[C@@H](CCSC)C(=O)N[C@@H](CCCNC(=N)N)C(=O)N[C@@H](CCCCN)C(=O)N2)NC(=O)[C@H](CSSC[C@@H](C(=O)N[C@@H](CCCCN)C(=O)N[C@@H](Cc2ccc(O)cc2)C(=O)N[C@H](C(=O)N[C@@H](Cc2cccc4ccccc24)C(N)=O)C(C)C)NC(=O)[C@H](Cc2c[nH]c4ccccc24)NC(=O)[C@H](CCCCN)NC(=O)[C@H](Cc2cnc[nH]2)NC(=O)[C@H]([C@@H](C)O)NC(=O)[C@H](CCCNC(=N)N)NC(=O)[C@H](CO)NC3=O)NC(=O)[C@H](CCCCN)NC(=O)[C@H](CC(=O)O)NC(=O)[C@H](CC(N)=O)NC(=O)[C@H](CC(=O)O)NC(=O)[C@@H]2CCCN2C1=O [compound 80] (H-DCLGFMRKCIPDNDKCCRPNLVCSRTHKWCKYV[1Nal]-NH2; disulfide 2-17, 9-23, 16-30) | – | – | – | IC50 (hNav1.3; use-dependent, […]): 0.03 µM; IC50 (hNav1.5; use-dependent, […]): 10.2 µM; IC50 (hNav1.7; use-dependent, […]): 0.02 µM |
| CC[C@H](C)[C@@H]1NC(=O)[C@@H]2CSSC[C@@H]3NC(=O)[C@H](C(C)C)NC(=O)[C@H](CC(C)C)NC(=O)[C@H](CC(N)=O)NC(=O)[C@@H]4CCCN4C(=O)[C@H](CCCNC(=N)N)NC(=O)[C@H](CSSC[C@H](NC(=O)[C@@H](N)CC(=O)O)C(=O)N[C@@H](CC(C)C)C(=O)N[C@@H](CCC(=O)O)C(=O)N[C@@H](C)C(=O)N[C@@H](CCSC)C(=O)N[C@@H](CCCNC(=N)N)C(=O)N[C@@H](CCCCN)C(=O)N2)NC(=O)[C@H](CSSC[C@@H](C(=O)N[C@@H](CCCCN)C(=O)N[C@@H](Cc2ccc(O)cc2)C(=O)N[C@H](C(=O)N[C@@H](Cc2ccccc2)C(N)=O)C(C)C)NC(=O)[C@H](Cc2c[nH]c4ccccc24)NC(=O)[C@H](CCCCN)NC(=O)[C@H](Cc2c[nH]cn2)NC(=O)[C@H]([C@@H](C)O)NC(=O)[C@H](CCCNC(=N)N)NC(=O)[C@H](CO)NC3=O)NC(=O)[C@H](CCCCN)NC(=O)[C@H](CC(=O)O)NC(=O)[C@H](CC(N)=O)NC(=O)[C@H](CC(=O)O)NC(=O)[C@@H]2CCCN2C1=O [compound 429] (H-DCLEAMRKCIPDNDKCCRPNLVCSRTHKWCKYVF-NH2; disulfide 2-17, 9-23, 16-30) | 3.99 | > 5 | 4.64 | – |
| CC[C@H](C)[C@@H]1NC(=O)[C@@H]2CSSC[C@@H]3NC(=O)[C@H](C(C)C)NC(=O)[C@H](CC(C)C)NC(=O)[C@H](CC(N)=O)NC(=O)[C@@H]4CCCN4C(=O)[C@H](CCCNC(=N)N)NC(=O)[C@H](CSSC[C@H](NC(=O)[C@@H](N)CC(=O)O)C(=O)N[C@@H](CC(C)C)C(=O)NCC(=O)N[C@@H](Cc4ccccc4)C(=O)N[C@@H](CCSC)C(=O)N[C@@H](CCCNC(=N)N)C(=O)N[C@@H](CCCCN)C(=O)N2)NC(=O)[C@H](CSSC[C@@H](C(=O)N[C@@H](Cc2ccccn2)C(=O)N[C@@H](Cc2ccc(O)cc2)C(=O)N[C@H](C(=O)N[C@@H](Cc2ccccc2)C(N)=O)C(C)C)NC(=O)[C@H](Cc2c[nH]c4ccccc24)NC(=O)[C@H](CCCCN)NC(=O)[C@H](Cc2c[nH]cn2)NC(=O)[C@H]([C@@H](C)O)NC(=O)[C@H](CCCNC(=N)N)NC(=O)[C@H](CO)NC3=O)NC(=O)[C@H](CCCCN)NC(=O)[C@H](CC(=O)O)NC(=O)[C@H](CC(N)=O)NC(=O)[C@H](CC(=O)O)NC(=O)[C@@H]2CCCN2C1=O [compound 364] (H-DCLGFMRKCIPDNDKCCRPNLVCSRTHKWC[2Pal]YVF-NH2; disulfide 2-17, 9-23, 16-30) | – | – | – | IC50 (hNav1.3; Table 25, use, […]): 16.9 µM; IC50 (hNav1.5; Table 25, use, […]): 9.49 µM; IC50 (hNav1.7; Table 25, use, […]): 11 µM |
| CC[C@H](C)[C@@H]1NC(=O)[C@@H]2CSSC[C@@H]3NC(=O)[C@H](C(C)C)NC(=O)[C@H](CC(C)C)NC(=O)[C@H](CC(N)=O)NC(=O)[C@@H]4CCCN4C(=O)[C@H](CCCNC(=N)N)NC(=O)[C@H](CSSC[C@H](NC(=O)[C@@H](N)CC(=O)O)C(=O)N[C@@H](CC(C)C)C(=O)NCC(=O)N[C@@H](C)C(=O)N[C@@H](CCSC)C(=O)N[C@@H](CCCNC(=N)N)C(=O)N[C@@H](CCCCN)C(=O)N2)NC(=O)[C@H](CSSC[C@@H](C(=O)N[C@@H](CCCCN)C(=O)N[C@@H](Cc2ccc(O)cc2)C(=O)N[C@@H](C)C(=O)N[C@@H](Cc2ccccc2)C(N)=O)NC(=O)[C@H](Cc2c[nH]c4ccccc24)NC(=O)[C@H](CCCCN)NC(=O)[C@H](Cc2c[nH]cn2)NC(=O)[C@H]([C@@H](C)O)NC(=O)[C@H](CCCNC(=N)N)NC(=O)[C@H](CO)NC3=O)NC(=O)[C@H](CCCCN)NC(=O)[C@H](CC(=O)O)NC(=O)[C@H](CC(N)=O)NC(=O)[C@H](CC(=O)O)NC(=O)[C@@H]2CCCN2C1=O [compound 426] (H-DCLGAMRKCIPDNDKCCRPNLVCSRTHKWCKYAF-NH2; disulfide 2-17, 9-23, 16-30) | 1.58 | > 5 | 0.58 | – |
